# From patent US20210371817A1, “COMPOSITIONS AND METHODS FOR PRECISE PATTERNING OF POSTERIOR NEUROECTODERM FROM HUMAN PLURIPOTENT STEM CELLS” (WISCONSIN ALUMNI RESEARCH FOUNDATION, priority 2013, published 2021)
# System: NSC cultures
# Assay: Hox protein expression in NSC cultures after RA treatment (immunocytochemistry, flow cytometry)
# Type: cell-based, human
# Procedure: Assessment of neuroectoderm or mesoderm fate transition by flow cytometry. Grey histogram, IgG control; red histogram, antigen of interest. Data are presented as mean±standard deviation calculated from two biological replicates. (FIG. 8B) For experiments in panels FIGS. 8C-8F, neuromesodermal propagation was halted by removing FGF8b/CHIR 99021/GDF11 and adding RA. Assays were conducted after 4 days of RA treatment. (FIG. 8C) HOX profiles generated after RA treatment. Each gene is normalized to its maximum expression. Error bars are standard deviation calculated from duplicate reactions. (FIG. 8D) HoxB4 and HoxD10 expression in neuroepithelial cultures after RA treatment. Scale bars, 100 m. (FIG. 8E) Purity of Sox2, Pax6, HoxB4, and HoxD10 after 4 days of RA treatment. Sox2, Pax6, and HoxB4 were quantified using flow cytometry and HoxD10 was quantified by manual counting of dissociated cells ([…]). Error bars are standard deviation calculated from at least two biological replicates. […] (FIG. 8F) Motor neuron differentiation at cervical, thoracic, and lumbar spinal cord depths, where the motor neuron precursors show region-specific patterns of FoxP1, Isl1, and Hb9 co-expression. (FIG. 8G) Neuronal maturation from cervical, thoracic, and lumbar patterned NSCs, as assessed by immunocytochemistry (top panel; DAPI (blue) is overlaid in all images; Scale bars, 20 m) and RT-PCR (50 cycles; bottom panel).
# FIGS. 9A-9C (FIG. 9A) provides additional data showing that RA induces a neuroectodermal fate and halts colinear HOX activation, using the neural differentiation scheme shown in FIG. 8B and representative hindbrain cultures assessed by qPCR. (FIG. 9B) Representative hindbrain cultures assessed by immunocytochemistry. (FIG. 9C) Representative hindbrain cultures assessed by flow cytometry. All data are presented as mean±S.D. and qPCR data are normalized to the time point of maximum expression for each gene. For the hindbrain cultures, HoxB1 and HoxB4 were quantified by immunocytochemistry relative to DAPI+ nuclei, while Sox2 and Pax6 were quantified by flow cytometry. Scale bars, 100 m.
# Flow cytometry. Flow cytometry was conducted as described in the Examples above. Primary antibodies against Sox2 (mouse; 1:1000; Millipore), brachyury (goat; 1:200; R&D Systems), Pax6 (mouse; 1:200; DSHB), and HoxB4 (rat; 1:50; DSHB) were utilized. Samples were run on a FACSCaliber (BD Biosciences) and data were analyzed using Cyflogic software. Positive events were quantified by gating above the top 1% of species-matched IgG controls.
# Immunocytochemistry. Immunocytochemistry was conducted as previously described. […]
substance,measurement,setting,value
"GDF11: Growth differentiation factor 11, a TGFβ family member",HoxD10+ cells,RA added at 120 h of neuromesodermal propagation,0%
same,HoxD10+ cells,"RA added at 144 h of neuromesodermal propagation, after GDF11 treatment",89±2%
